The values that follow come from EP4803519A1, “NOVEL PRMT5 INHIBITOR AND USE THEREOF” (Shanghai Apeiron Therapeutics Company Limited, priority 2023, dated 2025).

Assay type in all cases: cell-based
Assay [1] concerns LU99 MTAP overexpressing cells. Briefly: Inhibitory activity on proliferation of LU99 MTAP overexpressing cells (Cell-Titer Glo). Particulars: Homo sapiens, Lu-99, 144 h, incubated 6 d, 0-10,000 nM. As for the experimental part: Materials and cells: LU99 MTAP overexpressing cell line was purchased from Kyinno Biotechnology (China); cell culture medium and fetal bovine serum were purchased from Thermo Fisher Scientific (USA); 384-well plates were purchased from PerkinElmer (USA); Cell-Titer Glo kits were purchased from Promega (USA).
Cell culture: LU99 MTAP overexpressing cells were cultured with medium containing 10% fetal bovine serum at 37°C in 5% carbon dioxide. Only cells in the logarithmic growth phase could be used for the test.
(§1) Test of inhibitory activity on cell proliferation: The Cell-Titer Glo kit was used to test the proliferation inhibitory activity of the compounds on LU99 MTAP overexpressing cells. The cell concentration was adjusted, rendering that cells were inoculated into a 384-well plate at 40 µL per well and incubated overnight at 37°C and 5% carbon dioxide. 40 nL of the compound was added to each well to reach a final concentration of 0-10,000 nM (starting concentration 10,000 nM, 2.5-fold dilution, 10 points), and the cell plate with 0.2% DMSO content was incubated at 37°C and 5% carbon dioxide for 6 d. 40 µL of Cell-Titer Glo reagent was added to test cell viability.

Assay [2] relates to LU99 MTAP(-/-)deleted cells. Briefly: Inhibitory activity on proliferation of LU99 MTAP(-/-)deleted cells (Cell-Titer Glo). Particulars: Homo sapiens, Lu-99, 144 h, incubated 6 d, 0-1,000 nM. As to the method: Materials and cells: LU99 MTAP deleted cell line was purchased from Kyinno Biotechnology (China); cell culture medium and fetal bovine serum were purchased from Thermo Fisher Scientific (USA); 384-well plates were purchased from PerkinElmer (USA); Cell-Titer Glo kits were purchased from Promega (USA).
Cell culture: LU99 MTAP(-/-)deleted cells were cultured with medium containing 10% fetal bovine serum at 37°C in 5% carbon dioxide. Only cells in the logarithmic growth phase could be used for the test.
as §1, with “MTAP(-/-)deleted” for “MTAP overexpressing”, “0-1,000” for “0-10,000”, “1,000” for “10,000”

For the next assay, the system named is HCT-116 wild-type cells. Briefly: Inhibitory activity on proliferation of HCT-116 wild-type cells (Cell-Titer Glo). The note with it: Homo sapiens, 144 h, incubated 6 d, 0-10,000 nM. As to the method: Materials and cells: HCT-116 wild-type cells were purchased from Kyinno Biotechnology (China); RPMI-1640 medium, and fetal bovine serum were purchased from Thermo Fisher (United States); 384-well plates were purchased from PerkinElmer (United States); Cell-Titer Glo kit was purchased from Promega (United States).
Cell culture: HCT-116 wild-type cells were cultured in RPMI-1640 medium containing 10% fetal bovine serum at 37°C and 5% carbon dioxide. Only cells in the logarithmic growth phase could be used for the test.
as §1, with “of” for “of inhibitory activity on”, “cell proliferation activity:” for “cell proliferation: The”, “the compound” for “the compounds”, “on HCT-116 wild-type” for “on LU99 MTAP overexpressing”, “dioxide. 80” for “dioxide. 40”

The subject of assay [3] is HCT-116 MTAP(-/-)deleted cells. Kind of assay: Inhibitory activity on proliferation of HCT-116 MTAP(-/-)deleted cells (Cell-Titer Glo). The note with it: Homo sapiens, 144 h, incubated 6 d, 0-1,000 nM. As for the experimental part:
Materials and cells: HCT-116 MTAP(-/-)deleted cells were purchased from Kyinno Biotechnology (China); RPMI-1640 medium, and fetal bovine serum were purchased from Thermo Fisher (United States); 384-well plates were purchased from PerkinElmer (United States); Cell-Titer Glo kit was purchased from Promega (United States).
Cell culture: HCT116 MTAP(-/-)deleted cells were cultured with RPMI 1640 medium containing 10% fetal bovine serum at 37°C in 5% carbon dioxide. Only cells in the logarithmic growth phase could be used for the test.
Test of inhibitory activity on cell proliferation: The Cell-Titer Glo kit was used to test the proliferation inhibitory activity of the compounds on HCT-116 MTAP(-/-)deleted cells. The cell concentration was adjusted, rendering that cells were inoculated into a 384-well plate at 40 µL per well and incubated overnight at 37°C and 5% carbon dioxide. 80 nL of the compound was added into each well to reach a final concentration of 0-1,000 nM (starting concentration 1,000 nM, 2.5-fold dilution, 10 points), and the cell plate with 0.2% DMSO content was incubated at 37°C and 5% carbon dioxide for 6 d. 40 µL of Cell-Titer Glo reagent was added to test cell viability.

For the molecule `CN(C(=O)c1cc2c(cc1F)nc(N)c1cnn(C)c12)C1COC(C)(C)c2cc(-c3ccnn3C)ccc21` (stereo not drawn) [Example 14, (4-amino-7-fluoro-1-methylpyrazolo[4,5-c]quinolin-8-yl)-N-[1,1-dimethyl-7-(1-methylpyrazol-5-yl)isochroman-4-yl]-N-methylformamide], the IC50 (as a rule, the midpoint of a concentration-inhibition curve) in assay [1] is 309 nM; in assay [2], 5.9 nM; in the assay with HCT-116 wild-type cells, 286 nM; in assay [3], 4.1 nM.
In the same order, the values of `CN(C(=O)c1cc2c(cc1F)nc(N)c1cnn(C)c12)C1COC(C)(C)c2cc(C(F)(F)F)ccc21` (stereo not drawn) [Example 15, 4-Amino-N-(1,1-dimethyl-7-(trifluoromethyl)isochroman-4-yl)-7-fluoro-N,1-dimethyl-1H-pyrazolo[4,3-c]quinoline-8-carboxamide] are 795 nM, 25.9 nM, 446 nM and 13.6 nM.
Consider `CN(C(=O)c1ccc2nc(N)c3cnn(C)c3c2c1)[C@@H]1COC(C)(C)c2cc(C(F)(F)F)ccc21` [Example 16, (S)-4-amino-N-(1,1-dimethyl-7-(trifluoromethyl)isochroman-4-yl)-N,1-dimethyl-1H-pyrazolo[4,3-c]quinoline-8-carboxamide], for which the IC50 in assay [1] turned out to be 682 nM; in assay [2], 4.7 nM; with HCT-116 wild-type cells it was 487 nM; in assay [3], 3.7 nM.
The corresponding values for `CN(C(=O)c1ccc2nc(N)c3cnn(C)c3c2c1)[C@H]1COC(C)(C)c2cc(C(F)(F)F)ccc21` [Example 17, (R)-4-amino-N-(1,1-dimethyl-7-(trifluoromethyl)isochroman-4-yl)-N,1-dimethyl-1H-pyrazolo[4,3-c]quinoline-8-carboxamide] are 5220 nM, 174 nM, 5550 nM and 140 nM.
In the same order, the values of `CC1OCc2c1c(N)nc1cnc(C(=O)N(C)C3COC(C)(C)c4cc(C(F)(F)F)ccc43)cc21` (stereo not drawn) [Example 18, 4-Amino-N-(1,1-dimethyl-7-(trifluoromethyl)isochroman-4-yl)-N,3-dimethyl-1,3-dihydrofuro[3,4-c][1,7]naphthyridine-8-carboxamide] are 3970 nM, 62.9 nM, 3080 nM and 38.4 nM.
In the same order, the values of `CN(C(=O)c1ccc2nc(N)c3c(cnn3C)c2c1)[C@@H]1COC(C)(C)c2cc(C(F)(F)F)ccc21` [Example 21, (S)-4-amino-N-(1,1-dimethyl-7-(trifluoromethyl)isochroman-4-yl)-N,3-dimethyl-3H-pyrazolo[3,4-c]quinoline-8-carboxamide] are 2820 nM, 33.7 nM, 4370 nM and 20.8 nM.
As to `CN(C(=O)c1ccc2nc(N)c3ccncc3c2c1)C1COC(C)(C)c2cc(C(F)(F)F)ccc21` (stereo not drawn) [Example 22, 5-amino-N-(1,1-dimethyl-7-(trifluoromethyl)isochroman-4-yl)-N-methylbenzo[c][2,6]naph thyridine-9-carboxamide], the IC50 in assay [1] is 771 nM; in assay [2], 25.5 nM; in the assay on HCT-116 wild-type cells, 1250 nM; in assay [3] it was 13.4 nM.
For the molecule `CN(C(=O)c1ccc2nc(N)c3c(c2c1)CCOC3)[C@@H]1COC(C)(C)c2cc(C(F)(F)F)ccc21` [Example 23], the IC50 amounted to 3170 nM in assay [1], 79.5 nM in assay [2], 4860 nM with HCT-116 wild-type cells and 99.4 nM in assay [3].
The corresponding values for `CN(C(=O)c1cc2c(cc1Cl)nc(N)c1cnn(C)c12)C1COC(C)(C)c2cc(C(F)(F)F)ccc21` (stereo not drawn) [Example 24, 4-amino-7-chloro-N-(1,1-dimethyl-7-(trifluoromethyl)isochroman-4-yl)-N,1-dimethyl-1H-pyrazolo[4,3-c]quinoline-8-carboxamide] are 252 nM, 16.4 nM, 156 nM and 15.1 nM.
